In patent EP0329361A2, “2-pyranone derivatives and process for production thereof” (priority 1988, dated 1989):

Tests used:
[1] = system: Botrytis cinerea RR-4; assay: Disease suppressive activity against gray mold, cucumber seedling cotyledon test; type: in vivo; settings: strain RR-4 (multi-resistant strain), incubated at 20°C for three days
Method: (§1) The disease suppressive activity of the present compounds I-a, I-c (and I-b), I-d (and I-e), I-f, I-g, I-h, and I-i against the gray mold was tested by the following procedure. A solution of the present compound having a predetermined concentration was coated,with an absorbent cotton block, on the cotyledon of a cucumber seedling seven days after seeding. One day after the coating, an agar disk having a diameter of 5 mm containing Botrytis cinerea was put on the coated cotyledon, the plant was incubated at 20°C for three days, and the disease suppresive activity of the tested compound was observed. In Table 4, Botrytis cinerea RR-4 is a strain resistant to antimicrobial agents (multi-resistant strain), isolated from a diseased seedling of egg plant, and Botrytis cinerea S-9 is a strain sensitive to antimicrobial agents, isolated from a diseased petal of orange blossom. Note, the extent of the disease suppressive effect is expressed by symbols + (no lesion), ± (lesion having a diameter of less than 10 mm formed), and - (lesion having a diameter of not less than 10 mm formed).

[2] = system: Botrytis cinerea S-9; assay: as above; type: in vivo; settings: strain S-9 (sensitive to antimicrobial agents), incubated at 20°C for three days
Method: as §1

[3] = 8 ppm coated on cucumber seedling cotyledon
[4] = 32 ppm coated on cucumber seedling cotyledon
[5] = 125 ppm coated on cucumber seedling cotyledon

Row | Structure (SMILES) | Disease suppressive effect to Botrytis cinerea [1, 3] | Disease suppressive effect to Botrytis cinerea [1, 4] | Disease suppressive effect to Botrytis cinerea [2, 3] | Disease suppressive effect to Botrytis cinerea [2, 4] | Disease suppressive effect to Botrytis cinerea [1, 5] | Disease suppressive effect to Botrytis cinerea [2, 5]
1 | CCC(C)CCC(=O)OC1CCCC(C=CC=CC(O)CC(OP(=O)(O)O)C(O)(C=CC2OC(=O)C=CC2CC)CCN)C1 (stereo not drawn) [I-g] | + | + | + | + |  | 
2 | CCC1C=CC(=O)OC1C=CC(O)(CCN)C(CC(O)C=CC=CC1CCCC(OC(=O)C2CCCCC2)C1)OP(=O)(O)O (stereo not drawn) [I-f] | + | + | + | + |  | 
3 | CC12CC1(C)C(=O)N(c1cc(Cl)cc(Cl)c1)C2=O (stereo not drawn) [Procymidone, reference compound] |  | - (- (lesion having a diameter of not less than 10 mm formed)) |  | - (- (lesion having a diameter of not less than 10 mm formed)) | - (- (lesion having a diameter of not less than 10 mm formed)) | +
4 | CCCCCCCC(=O)OC1CCCC(C=CC=CC(O)CC(OP(=O)(O)O)C(O)(C=CC2OC(=O)C=CC2CC)CCN)C1 (stereo not drawn) [I-i] | - (- (lesion having a diameter of not less than 10 mm formed)) | + | - (- (lesion having a diameter of not less than 10 mm formed)) | + |  | 
5 | CCC1C=CC(=O)OC1C=CC(O)(CCN)C(CC(O)C=CC=CC1CCCCC1)OP(=O)(O)O (stereo not drawn) [I-a] |  | - (- (lesion having a diameter of not less than 10 mm formed)) |  | - (- (lesion having a diameter of not less than 10 mm formed)) | + | +
6 | CCC1C=CC(=O)OC1C=CC(O)(CCN)C(CC(O)C=CC=CC1CCCC(OC(=O)CCCCC(C)C)C1)OP(=O)(O)O (stereo not drawn) [I-h] | - (- (lesion having a diameter of not less than 10 mm formed)) | + | - (- (lesion having a diameter of not less than 10 mm formed)) | + |  | 
